This is an account of results in patent EP4119145A1, “COMPOUNDS FOR THE TREATMENT OF COVID-19” (priority 2021, dated 2023).

Structures can show the parent of a compound that is named as a salt. Where two headings read alike, the source gives them in different places.

This assay concerns the target SARS-CoV-2 PL-Pro (Severe acute respiratory syndrome coronavirus 2, UniProt P0DTD1). In words: biochemical. Conditions: for inhibition at 20 µM: read-out: PLPro Inhibition [%] Primary Screen (20 µM).
The mark [1] stands for this setting: dose response, 0.014 µM to 20 µM, 8 concentration points, read-out: IC50.

Turning to `CC1(C)CCC2=C(O1)c1ccccc1C(=O)C2=O` [Compound 10, 2,2-Dimethyl-3,4-dihydro-2H-benzo[h]1-benzopyrane-5,6-dione], the inhibition (as a rule, the relative decrease from the control value, in per cent) at 20 µM was 146%. Also, the IC50 (usually the concentration needed to halve the response being measured) under setting [1] worked out at 4430 nM.
Turning to `Cc1ccc(NC2=CC(=O)c3sc(C)nc3C2=O)cc1` [Compound 13, 2-methyl-5-(4-methylanilino)-1,3-benzothiazole-4,7-dione], the inhibition at 20 µM worked out at 160%. Also, under setting [1], the IC50 came to 260 nM.
Turning to “cobalt(3+);[(2R,3S,4R,5S)-5-(5,6-dimethylbenzimidazol-1-yl)-4-hydroxy-2-(hydroxymethyl)oxolan-3-yl][(2R)-1-[3-[(1R,2R,3R,4Z,7S,9Z,12S,13S,14Z,17S,18S,19R)-2,13,18-tris(2-amino-2-oxoethyl)-7,12,17-tris(3-amino-3-oxopropyl)-3,5,8,8,13,15,18,19-octamethyl-2,7,12,17-tetrahydro-1H-corrin-21-id-3-yl]propanoylamino]propan-2-yl] phosphate;cyanide [Compound 17]”, the “PLPro Inhibition [%] Primary Screen (20 µM)” value is 141.27%. The IC50 (read-out: IC50) was 2900 nM.
`Cc1c(S(=O)(=O)O)oc2c1C(=O)C(=O)c1c-2ccc2c1CCCC2(C)C` [Compound 8, 1,6,6-Trimethyl-10,11-dioxo-6,7,8,9,10,11-hexahydrophenanthro[1,2-b]furan-2-sulfonic acid sodium salt]: the inhibition at 20 µM was 124%.
`CC1(C)C(=O)N=C2C1=C(O)C(=O)c1ccccc12` [Compound 9, 4-Hydroxy-3,3-dimethyl-3,5-dihydro-2H-benzobenzo[g]indole-2,5-dione]: the inhibition at 20 µM stood at 155%. Under setting [1], the IC50 came to 390 nM.
For `O=C1C(Cl)=C(NCCN2CCOCC2)C(=O)c2ncccc21` [Compound 12, 6-Chloro-7-[2-(4-morpholinyl)ethylamino]-5,8-dihydroquinoline-5,8-dione], 220 nM corresponded to half-maximal inhibition (IC50) and the inhibition at 20 µM stood at 151%.
As for `Cc1cccc2c1ccc1c3c(c(=O)oc(=O)c12)[C@@H](C)CO3` [Compound 11, (4R)-4,9-Dimethyl-4,5-dihydrofuro[3,2-c]naphtho[2,1-e]oxepine-1,3-dione], the inhibition at 20 µM amounted to 80.7%. Besides, under setting [1], the half-maximal inhibitory concentration (IC50) was 920 nM.
The matching figures for `CC(=NNC(=N)N)c1cc(NC(=O)CCCCCCCCC(=O)Nc2cc(C(C)=NNC(=N)N)cc(C(C)=NNC(=N)N)c2)cc(C(C)=NNC(=N)N)c1` [Compound 16, N,N'-Bis[3,5-bis[1-(2-amidinohydrazono)ethyl]phenyl]decanediamide]: 140% and 1210 nM.
The matching figures for `CCOC(=O)C1=C(C)N=c2s/c(=C\c3ccc(OCC(=O)O)cc3)c(=O)n2C1c1ccc(SC)cc1` (centres unmarked) [Compound 15, 2-[4-[(Z)-[6-ethoxycarbonyl-7-methyl-5-(4-methylsulfanylphenyl)-3-oxo-5H-[1,3]thiazolo[3,2-a]pyrimidin-2-ylidene]methyl]phenoxy]acetic acid]: 82.8% and 3140 nM.
As for `Cc1cc2nc3c(=O)[nH]c(=O)nc-3n(C)c2cc1C=O` [Compound 3, 7,10-Dimethyl-2,4-dioxo-2,3,4,10-tetrahydrobenzo[g]pteridine-8-carbaldehyde], the inhibition at 20 µM turned out to be 119%. Further, the concentration for half-maximal inhibition (IC50) under setting [1] turned out to be 401 nM.
As to `CC[N+](C)(CC)CCC[n+]1c(-c2ccccc2)c2cc(N)ccc2c2ccc(N)cc21` [Compound 14, 3,8-Diamino-5-(3-(diethyl(methyl)ammonio)propyl)-6-phenylphenanthridin-5-ium iodide], the IC50 turned out to be 240 nM and the inhibition at 20 µM worked out at 136%.
Turning to `Cc1nc2c(=O)n(C)c(=O)nc-2n(C)n1` [Compound 2, 1,3,6-Trimethylpyrimido[5,4-e][1,2,4]triazine-5,7(1H,6H)-dione], the inhibition at 20 µM turned out to be 181%. The IC50 under setting [1] worked out at 74 nM.
Taken in the same sequence, the figures for `O=C1C(=O)c2cc([N+](=O)[O-])ccc2-c2ccccc21` [Compound 4, 2-Nitrophenanthrene-9,10-dione] were 186% and 129 nM.
Taken in the same sequence, the figures for `O=C1C(=O)c2ccccc2-c2ccccc21` [Compound 6, phenanthrene-9,10-dione] were 181% and 504 nM.
For `CC(C)(C)C(=O)Nc1ccc2c(c1)C(=O)C(=O)c1ccccc1-2` [Compound 5, N-(9,10-Dioxo-9,10-dihydrophenanthren-2-yl)-2,2-dimethylpropionamide], the inhibition at 20 µM was found to be 184%. For the same compound, the IC50 under setting [1] turned out to be 246 nM.
